# Source: patent publication US7541346B2, “Pancratistatin cyclic phosphate prodrugs and phenpanstatin cyclic phosphate prodrugs” (Arizona Board of Regents, a body corporate of the State of …, priority 2003, dated 2009)
# Where two headings read alike, the source gives them in different places.
# How the values were obtained:
# MCF-7 = assay: Human cancer cell line inhibitory activity, Breast MCF-7; assay type: cell-based; details: for GI50: Homo sapiens, MCF7, read-out: GI50 Breast MCF-7
# KM20L2 = assay: Human cancer cell line inhibitory activity, Colon KM20L2; assay type: cell-based; details: for GI50: Homo sapiens, KM-20L2, read-out: GI50 Colon KM20L2
# SF268 = assay: Human cancer cell line inhibitory activity, CNS SF268; assay type: cell-based; details: for GI50: Homo sapiens, SF-268, read-out: GI50 CNS SF268
# NCI-H460 = assay: Human cancer cell line inhibitory activity, Lung-NSC NCI-H460; assay type: cell-based; details: for GI50: Homo sapiens, NCI-H460, read-out: GI50 Lung-NSC NCI-H460
# DU-145 = assay: Human cancer cell line inhibitory activity, Prostate DU-145; assay type: cell-based; details: for GI50: Homo sapiens, DU-145, read-out: GI50 Prostate DU-145
# BXPC-3 = assay: Human cancer cell line inhibitory activity, Pancreas-a BXPC-3; assay type: cell-based; details: for GI50: Homo sapiens, BXPC-3, read-out: GI50 Pancreas-a BXPC-3
# [1] = test system: Encephalitozoon intestinalis; details: in vitro; cited from earlier work
# [2] = freeze dried solid
# Procedure: Sodium pancratistatin 3,4-cyclic phosphate (5a, 0.0165 g, 0.04 mmol) was dissolved in water (1 ml) and eluted through a column containing Amberlite IR 120 (H+) resin.
SMILES,GI50 Breast MCF-7 (MCF-7),GI50 Colon KM20L2 (KM20L2),GI50 CNS SF268 (SF268),GI50 Lung-NSC NCI-H460 (NCI-H460),GI50 Prostate DU-145 (DU-145),GI50 Pancreas-a BXPC-3 (BXPC-3),further results
"O=C1N[C@H]2[C@H](OP(=O)([O-])[O-])[C@H](O)[C@@H](O)[C@H](O)[C@@H]2c2cc3c(c(O)c21)OCO3.[Ca+2] [Compound 4f, Calcium Pancratistatin 4-O-Phosphate]",0.36 µg/mL,0.23 µg/mL,0.26 µg/mL,0.27 µg/mL,0.12 µg/mL,0.25 µg/mL,–
"O=C(O[C@H]1[C@H](O)[C@H]2OP(=O)([O-])O[C@H]2[C@@H]2NC(=O)c3c(cc4c(c3O)OCO4)[C@H]21)c1ccccc1.[Na+] [Compound 3b, Sodium Phenpanstatin 3,4,O-cyclic Phosphate]",–,–,–,–,–,–,GI50 Breast MCF-7 (MCF-7; human cancer cell line MCF-7): 0.041 µg/mL; GI50 Colon KM20L2 (KM20L2; human cancer cell line KM20L2): 0.13 µg/mL; GI50 CNS SF268 (SF268; human cancer cell line SF268): 0.17 µg/mL; GI50 Lung-NSC NCI-H460 (NCI-H460; human cancer cell line NCI-H460): 0.029 µg/mL; GI50 Prostate DU-145 (DU-145; human cancer cell line DU-145): 0.13 µg/mL; GI50 Pancreas-a BXPC-3 (BXPC-3; human cancer cell line BXPC-3): 0.25 µg/mL
"C=C[C@H]1CN2CC[C@H]1C[C@H]2[C@H](O)c1ccnc2ccc(OC)cc12.O=C1N[C@H]2[C@H](OP(=O)(O)O)[C@H](O)[C@@H](O)[C@H](O)[C@@H]2c2cc3c(c(O)c21)OCO3 [Compound 4k, Quinium Pancratistatin 4-O-Phosphate]",0.35 µg/mL,0.22 µg/mL,0.28 µg/mL,0.31 µg/mL,0.15 µg/mL,0.23 µg/mL,–
"C1COCCN1.O=C1N[C@H]2[C@H](OP(=O)(O)O)[C@H](O)[C@@H](O)[C@H](O)[C@@H]2c2cc3c(c(O)c21)OCO3 [Compound 4i, Morpholinium Pancratistatin 4-O-Phosphate]",0.40 µg/mL,0.37 µg/mL,0.38 µg/mL,0.46 µg/mL,0.18 µg/mL,0.29 µg/mL,–
"O=C1N[C@H]2[C@H](OP(=O)([O-])[O-])[C@H](O)[C@@H](O)[C@H](O)[C@@H]2c2cc3c(c(O)c21)OCO3.[K+].[K+] [Compound 4d, Potassium Pancratistatin 4-O-phosphate]",0.46 µg/mL,0.30 µg/mL,0.39 µg/mL,0.40 µg/mL,0.22 µg/mL,0.45 µg/mL,–
"O=C1N[C@H]2[C@H](OP(=O)([O-])[O-])[C@H](O)[C@@H](O)[C@H](O)[C@@H]2c2cc3c(c(O)c21)OCO3.[Mg+2] [Compound 4e, Magnesium Pancratistatin 4-O-Phosphate]",0.44 µg/mL,0.36 µg/mL,0.36 µg/mL,0.42 µg/mL,0.22 µg/mL,0.40 µg/mL,–
"O=C1N[C@@H]2C(=C[C@H](O)[C@@H](O)[C@H]2O)c2cc3c(c(O)c21)OCO3 [Compound 2a, narciclasine, reference compound]",0.0032 µg/mL,0.0032 µg/mL,0.0031 µg/mL,0.0084 µg/mL,0.0032 µg/mL,0.0035 µg/mL,–
"O=C1N[C@H]2[C@@H]3OP(=O)([O-])O[C@@H]3[C@@H](O)[C@H](O)[C@@H]2c2cc3c(c(O)c21)OCO3.[Na+] [Compound 5a, Sodium Pancratistatin 3,4-cyclic Phosphate]",2.9 µg/mL,3.7 µg/mL,2.9 µg/mL,3.8 µg/mL,2.3 µg/mL,3.3 µg/mL,–
"O=C1N[C@H]2[C@H](O)[C@H](O)[C@@H](O)[C@H](O)[C@@H]2c2cc3c(c(O)c21)OCO3 [Compound 1a, (+)-pancratistatin, reference compound]",–,–,–,–,–,–,GI50 (MCF-7): 0.023 µg/mL; GI50 (KM20L2): 0.025 µg/mL; GI50 (SF268): 0.014 µg/mL; GI50 (NCI-H460): 0.032 µg/mL; activity against microspirochesis [1]: remarkable activity; GI50 (DU-145): 0.015 µg/mL; GI50 (BXPC-3): 0.02 µg/mL
"O=C1N[C@H]2[C@H](OP(=O)([O-])O)[C@H](O)[C@@H](O)[C@H](O)[C@@H]2c2cc3c(c(O)c21)OCO3.[Li+] [Compound 4c, Lithium Pancratistatin 4-O-phosphate]",0.39 µg/mL,0.25 µg/mL,0.28 µg/mL,0.35 µg/mL,0.20 µg/mL,0.30 µg/mL,–
"O=C1N[C@H]2[C@H](OP(=O)(O)O)[C@H](O)[C@@H](O)[C@H](O)[C@@H]2c2cc3c(c(O)c21)OCO3.c1c[nH]cn1 [Compound 4j, Imidazolium Pancratistatin 4-O-Phosphate]",0.33 µg/mL,0.13 µg/mL,0.21 µg/mL,0.25 µg/mL,0.13 µg/mL,0.25 µg/mL,–
"O=C1N[C@H]2[C@H](OP(=O)(O)O)[C@H](O)[C@@H](O)[C@H](O)[C@@H]2c2cc3c(c(O)c21)OCO3 [Compound 4b, Pancratistatin 4-O-phosphoric Acid]",0.43 µg/mL,0.33 µg/mL,0.35 µg/mL,0.42 µg/mL,0.20 µg/mL,0.36 µg/mL,stability of the material [2]: unstable and decomposed over several days
"O=C1N[C@H]2[C@H](OP(=O)([O-])[O-])[C@H](O)[C@@H](O)[C@H](O)[C@@H]2c2cc3c(c(O)c21)OCO3.[Na+].[Na+] [Compound 4a, Sodium Pancratistatin 4-O-phosphate]",0.18 µg/mL,0.24 µg/mL,0.12 µg/mL,0.38 µg/mL,0.94 µg/mL,0.18 µg/mL,–
"C=C[C@H]1CN2CC[C@H]1C[C@@H]2[C@@H](O)c1ccnc2ccc(OC)cc12.O=C1N[C@H]2[C@H](OP(=O)(O)O)[C@H](O)[C@@H](O)[C@H](O)[C@@H]2c2cc3c(c(O)c21)OCO3 [Compound 4l, Quinidium Pancratistatin 4-O-Phosphate]",0.38 µg/mL,0.23 µg/mL,0.27 µg/mL,0.36 µg/mL,0.20 µg/mL,0.34 µg/mL,–
"O=C1N[C@H]2[C@H](O)[C@H](O)[C@@H](O)[C@H](O)[C@@H]2c2cc3c(c(OP(=O)([O-])[O-])c21)OCO3.[Na+].[Na+] [Compound 1b, sodium pancratistatin 7-O-phosphate, reference compound]",0.20 µg/mL,0.17 µg/mL,0.079 µg/mL,0.19 µg/mL,0.026 µg/mL,0.20 µg/mL,–
"O=C(O[C@H]1[C@H](O)[C@@H](O)[C@@H](O)[C@@H]2NC(=O)c3c(cc4c(c3O)OCO4)[C@H]21)c1ccccc1 [Compound 3a, phenpanstatin]",–,–,–,–,–,–,GI50 (MCF-7): 0.00031 µg/mL; GI50 (KM20L2): 0.00037 µg/mL; GI50 (SF268): 0.00055 µg/mL; GI50 (NCI-H460): 0.0001 µg/mL; GI50 (DU-145): 0.00021 µg/mL; GI50 (BXPC-3): 0.0019 µg/mL
"C1CNCCN1.O=C1N[C@H]2[C@H](OP(=O)(O)O)[C@H](O)[C@@H](O)[C@H](O)[C@@H]2c2cc3c(c(O)c21)OCO3 [Compound 4h, Piperazinium Pancratistatin 4-O-Phosphate]",0.38 µg/mL,0.24 µg/mL,0.27 µg/mL,0.35 µg/mL,0.21 µg/mL,0.31 µg/mL,–
"O=C1N[C@H]2[C@H](OP(=O)([O-])[O-])[C@H](O)[C@@H](O)[C@H](O)[C@@H]2c2cc3c(c(O)c21)OCO3.[Zn+2] [Compound 4g, Zinc Pancratistatin 4-O-Phosphate]",0.47 µg/mL,0.30 µg/mL,0.38 µg/mL,0.42 µg/mL,0.17 µg/mL,0.27 µg/mL,–
